Tests used:
[1] = tested on: immobility in forced swim test; experiment: Forced Swim Test (FST) in rats; assay type: in vivo
Source text: (§1) The forced swim test (FST) also known at the behavioural despair test was used to evaluate antidepressant activity (Porsolt et al., 1977 Arch. Int. Pharmacodyn. 229: 327-336, Porsolt et al., 1977, Eur. J. Pharmacol. 47:379-391). Mice or rats that are forced to swim in a situation from which they cannot escape, rapidly become immobile. Drugs with antidepressant activity, such as imipramine, reduce the amount of time spent in the immobile state. Therefore, the amount of immobility time during a test conducted after drug administration represents a useful indicator of antidepressant activity (Lucki et al 2001 Psychopharmacology 155:315-322; Porsolt et al., 1977, Nature 266:730-732).
Test compound E1-8.2 was administered as the free base. […]
Male Wistar rats weighing 197-251 g were used for the rat test. Rats were evaluated according to a two-session procedure with a swimming session of 15 minutes on the first day of the experiment (Session 1) followed 24 hours later by a 5-minute swimming test (Session 2). […] Rats were placed in the water 24 h later for 5 minutes (Session 2) and the duration of immobility was measured.
Animals were observed by a blinded observer. […] The amount of time each animal spent in the immobile state (and the latency to the first bout of immobility) was recorded and used for statistical analysis of compound effect. […]

[2] = tested on: immobility in forced swim test; experiment: Forced Swim Test (FST) in mice; assay type: in vivo
Source text: as §1
Test compound E1-8.2 was administered as the free base.
Testing for antidepressant activity was conducted in rats or mice according to the general procedures below.
Mice were evaluated in a single swimming test session of 6 minutes. Mice were placed in a transparent plastic cylinder 24 cm high with a diameter of 13 cm containing 10 cm of water with ambient temperature control generally from 22±2° C. Mice were placed in the water for 6 minutes and the duration of immobility during the last 4 minutes was measured.
Animals were observed by a blinded observer. […] The amount of time each animal spent in the immobile state (and the latency to the first bout of immobility) was recorded and used for statistical analysis of compound effect. Group differences were evaluated by student's t-test (reference substance) or one-way ANOVA followed by post-hoc Dunnett's test (test substances). […]
Male mice (strain NLMN) weighing 25-35 g were used for testing. […] The mice were videotaped for 6 minutes, and the last 4 minutes of video were analyzed by a blinded observer off-line. […] The amount of time each animal spent in the immobile state was recorded and used for statistical analysis of compound effect. Group differences were evaluated by student's t-test or one-way ANOVA followed by post-hoc Dunnett's test. […]

Measured: antidepressant activity (immobility time)

CN(C)CCCN1c2ccccc2CCc2ccccc21 [imipramine]
expected antidepressant activity: [1]; 32 mpk i.p. 3 times: 24 h, 4 h and 30 min before the test (Session 2) | [1]; 64 mpk p.o. 3 times: 24 h, 4 h and 60 min before the test (Session 2) | [2]; 32 mpk i.p. once 30 min before the test | [2]; 64 mpk p.o. once 60 min before the test | [2]; 128 mpk p.o. once 60 minutes before the test on Day 7
